Laboratory results taken from patent US20080207614A1, “QUINAZOLINE DERIVATIVES FOR THE TREATMENT AND PREVENTION OF DIABETES AND OBESITY” (SK CHEMICALS CO., LTD., priority 2004, published 2008).

Key:
AMPK = test: Measurement of AMPK activity by Western blot in C2C12 cells; type: cell-based; parameters: key to AMPK activity (degree of phosphorylation of serine-79 and threonine-172): fold increase in threonine-172 phosphorylation; AMPK activity (degree of phosphorylation of serine-79): unit not given here; settings: 10 μM for 50 minutes; for AMPK activity (degree of phosphorylation of serine-79 and threonine-172): no superscript: Western blot of serine-79 and threonine-172 phosphorylation; for AMPK activity (class: degree of phosphorylation of threonine-172): strong/mild/weak
How it was run: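 Western blot readout of AMPK Thr-172 and ACC Ser-79 phosphorylation, normalised against ERK, served as the activity measure. Cells were C2C12 after differentiation, treated 50 minutes with 10 μM test material. Grading by Thr-172 increase: ≥3-fold strong, 1-3-fold mild, <1-fold weak.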

C2C12 muscle cells = test: Analysis of glucose absorption (2-deoxyglucose) in differentiated C2C12 muscle cells; type: cell-based; settings: test materials 10 μM, times relative to control group
How it was run: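 Uptake of 0.2 μCi 2-deoxyglucose over 20 min, counted radiometrically in lysed cells. Before tracer, compounds (10 μM) were applied for 30 min to C2C12 cells differentiated 6 days in 1% serum and equilibrated 3 h in 5 mM glucose KRB.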

Compound | AMPK activity (degree of phosphorylation of serine-79 and threonine-172) (AMPK) | Glucose absorption (C2C12 muscle cells) | AMPK activity (class: degree of phosphorylation of threonine-172) (AMPK) | AMPK activity (degree of phosphorylation of serine-79) (AMPK; footnote a: Western blot of serine-79 phosphorylation)
COc1ccc(CNc2nc(C(OC)c3ccccc3)nc3ccccc23)cc1 (stereo not drawn) [Compound 362, (4-Methoxybenzyl)-[2-(methoxyphenylmethyl)-quinazolino-4-yl]-amine] | 2.6 | 1.2 |  | 
CCSc1nc(NCc2ccc3c(c2)OCO3)c2ccccc2n1 [Compound 37, Benzo[1,3]dioxol-5-ylmethyl-(2-ethylsulfanylquinazolino-4-yl)-amine] |  | 2.2 | strong (“strong” means that the degree of phosphorylation of threonine-172 increased by 3 times or more) | 
c1ccc(-c2nc(NCc3cccnc3)c3ccccc3n2)cc1 [Compound 111, (2-Phenylquinazolino-4-yl)-pyridino-3-ylmethylamine] | 1.8 | 2.4 | strong (“strong” means that the degree of phosphorylation of threonine-172 increased by 3 times or more) | 
CC(CO)Nc1nc(-c2ccccc2)nc2ccccc12 (stereo not drawn) [Compound 112, 2-(2-Phenylquinazolino-4-ylamino)-propane-1-ol] | 1.7 | 1.9 | strong (“strong” means that the degree of phosphorylation of threonine-172 increased by 3 times or more) | 
Fc1ccccc1CCNc1nc(-c2ccccc2)nc2ccccc12 [Compound 140, [2-(2-Fluorophenyl)-ethyl]-(2-phenylquinazolino-4-yl)-amine] | 3.1 | 2.7 | strong (“strong” means that the degree of phosphorylation of threonine-172 increased by 3 times or more) | 
Clc1ccccc1CNc1nc(-c2ccccc2)nc2ccccc12 [Compound 109, (2-Chlorobenzyl)-(2-phenylquinazolino-4-yl)-amine] | 1.9 | 1.3 | strong (“strong” means that the degree of phosphorylation of threonine-172 increased by 3 times or more) | 
Cc1nc(NCc2cccc(C(F)(F)F)c2)c2ccccc2n1 [Compound 166, (2-Methylquinazolino-4-yl)-(3-trifluoromethylbenzyl)-amine] | 3.8 | 2.8 | strong (“strong” means that the degree of phosphorylation of threonine-172 increased by 3 times or more) | 
CC(C)c1nc(NCc2ccc3c(c2)OCO3)c2ccccc2n1 [Compound 182, Benzo[1,3]dioxol-5-ylmethyl-(2-isopropylquinazolino-4-yl)-amine] | 2.9 | 3.1 | strong (“strong” means that the degree of phosphorylation of threonine-172 increased by 3 times or more) | 
COc1ccc(CNc2nc(-c3cccs3)nc3ccccc23)cc1OC [Compound 355, (3,4-Dimethoxybenzyl)-(2-thiopenyl-2-ylquinazolino-4-yl)-amine] | 1.1 | 1.2 |  | 
c1ccc(-c2nc(NCc3ccccn3)c3ccccc3n2)cc1 [Compound 142, (2-Phenylquinazolino-4-yl)-pyridino-2-ylmethylamine] | 1.4 | 1.4 | mild (“mild” means that the degree of phosphorylation of threonine-172 increased by 1 to 3 times) | 
COC(c1ccccc1)c1nc(NCc2ccc3c(c2)OCO3)c2ccccc2n1 (stereo not drawn) [Compound 363, Benzo[1,3]dioxol-5-ylmethyl-[2-(methoxyphenylmethyl)-quinazolino-4-yl]-amine] | 1.4 | 1.3 |  | 
Cc1nc(NCCCCc2ccccc2)c2ccccc2n1 [Compound 168, (2-Methylquinazolino-4-yl)-(4-phenylbutyl)-amine] | 8.4 | 3.6 | strong (“strong” means that the degree of phosphorylation of threonine-172 increased by 3 times or more) | 
COc1ccc(CNc2nc(N3CCCC3)nc3ccccc23)cc1 [Compound 283, (4-Methoxybenzyl)-(2-pyrrolidino-1-ylquinazolino-4-yl)-amine] | 1.1 | 1.0 |  | 
CCSc1nc(NCc2cccc(OC)c2)c2ccccc2n1 [Compound 24, (2-Ethylsulfanylquinazolino-4-yl)-(3-methoxybenzyl)-amine] |  | 2.8 | strong (“strong” means that the degree of phosphorylation of threonine-172 increased by 3 times or more) | 
COc1cc(CNc2nc(N3CCCCC3)nc3ccccc23)cc(OC)c1 [Compound 304, (3,5-Dimethoxybenzyl)-(2-piperidino-1-ylquinazolino-4-yl)-amine] | 1.4 | 0.8 |  | 
CC(C)c1nc(NCc2ccccc2)c2ccccc2n1 [Compound 175, Benzyl-(2-isopropylquinazolino-4-yl)-amine] | 4.8 | 2.7 | strong (“strong” means that the degree of phosphorylation of threonine-172 increased by 3 times or more) | 
COc1cc(CNc2nc(N3CCCC3)nc3ccccc23)cc(OC)c1 [Compound 303, (3,5-Dimethoxybenzyl)-(2-pyrrolidino-1-ylquinazolino-4-yl)-amine] | 1.0 | 1.0 |  | 
COc1cccc(CNc2nc(C(C)C)nc3ccccc23)c1 [Compound 176, (2-Isopropylquinazolino-4-yl)-(3-methoxybenzyl)-amine] | 4.4 | 2.4 | strong (“strong” means that the degree of phosphorylation of threonine-172 increased by 3 times or more) | 
c1ccc(-c2nc(NC3CC3)c3ccccc3n2)cc1 [Compound 110, Cyclopropyl-(2-phenylquinazolino-4-yl)-amine] | 1.6 | 2.0 | strong (“strong” means that the degree of phosphorylation of threonine-172 increased by 3 times or more) | 
COc1cc(OC)c(CNc2nc(C3CC3)nc3ccccc23)c(OC)c1 [Compound 392, (2-Cyclopropylquinazolino-4-yl)-(2,4,6-trimethoxybenzyl)-amine] | 2.7 | 1.1 |  | 
CCSc1nc(NCCN2CCOCC2)c2ccccc2n1 [Compound 11, (2-Ethylsulfanylquinazolino-4-yl)-(2-morpholino-4-ylethyl)-amine] |  | 1.0 |  | 3.2^a
CCSc1nc(NCc2ccccc2)c2ccccc2n1 [Compound 22, Benzyl-(2-Ethylsulfanylquinazolino-4-yl)-amine] |  | 2.6 | strong (“strong” means that the degree of phosphorylation of threonine-172 increased by 3 times or more) | 
COc1cc(CNc2nc(N3CCN(C)CC3)nc3ccccc23)cc(OC)c1 [Compound 306, (3,5-Dimethoxybenzyl)-[2-(4-methylpiperazino-1-yl)-quinazolino-4-yl]-amine] | 1.7 | 0.8 |  | 
COc1ccc(CNc2ncnc3ccccc23)cc1 [Compound 406, (4-Methoxybenzyl)-quinazolino-4-ylamine] | 1.5 | 2.1 |  | 
CCSc1nc(NCCc2ccccc2)c2ccccc2n1 [Compound 29, (2-Ethylsulfanylquinazolino-4-yl)-phenethylamine] |  | 1.6 | mild (“mild” means that the degree of phosphorylation of threonine-172 increased by 1 to 3 times) | 
c1ccc2c(NCc3ccc4c(c3)OCO4)nc(N3CCCCC3)nc2c1 [Compound 308, Benzo[1,3]dioxol-5-ylmethyl-(2-piperidino-1-ylquinazolino-4-yl)-amine] | 2.2 | 0.8 |  | 
